# From patent publication US12516038B2, “Inhibitors of antigen presentation by HLA-DR” (Janssen Pharmaceutica NV, priority 2020, dated 2026)
# Assays:
# HLA-DRB1*0401 = HLA-DRB1*0401 (Homo sapiens (Human), UniProt P01903+P01911, A100K/A169T/DEL228-266/F76Y/I96L/K127E/L162R/M171V/N62H/P40V/Q125Y/R42H/S133A/S149N/S66Y/V115G/V209L/W38E); assay: HLA-DR4 HTRF assay; assay type: binding; details: inhibition of loading of Alexa Fluor 647-labeled Cit-CII peptide onto HLA-DR4 (CLIP cleaved)
# How it was run: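 HLA-DRB1*04:01 construct (α/β fused to human Fc, CLIP pre-cleaved by HRV3C overnight at 4° C) at 3 nM was preincubated 45 min with compound and 1 nM anti-Fc-Tb donor, then 40 nM Alexa647-Cit-CII1236-1249 peptide added. After 90 min at 37° C, the 665/620 nm HTRF ratio gave % inhibition; IC50 by nonlinear regression.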
# [1] = test system: HLA-DR4 restricted mouse T cell hybridoma line (DR4.CII.36.8) with HLA-DRB1*04:01-expressing Boleth cells; assay: HLA-DR4-restricted peptide-specific T cell-based assay (hybridoma assay); details: Mus musculus, T-cell, 6 h, inhibition of IL-2 production, CII259-273 peptide presented by Boleth cells
# How it was run: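 IC50 values derive from 4-parameter logistic fits of IL-2 AlphaLISA signal over 8-point duplicate titrations. Compound and HLA-DRB1*04:01 Boleth APCs were preincubated 1 h, 37° C., before adding CII259-273-restricted DR4.CII.36.8 hybridoma cells with peptide for 6 h at 37° C., in DMEM/1% FCS.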
SMILES,IC50 (HLA-DRB1*0401),IC50 [1]
"Cc1c(O[C@@H](c2ccc(C(N)=O)cc2)c2ccnc(CCC(=O)O)c2)ccc2c1OCCC2=O (single isomer, unassigned) [Example 87b]",510 nM,> 15 µM
"Cc1cc2c(c(C)c1O[C@@H](c1ccc(F)cc1)c1ccc(C(N)=O)cc1)OCCC2=O (single isomer, unassigned) [Example 90a, (*R)-4-(((6,8-dimethyl-4-oxochroman-7-yl)oxy)(4-fluorophenyl)methyl)benzamide]",520 nM,> 15 µM
"Cc1cc2c(c(C)c1O[C@H](c1ccc(F)cc1)c1ccc(C(N)=O)cc1)OCCC2=O (single isomer, unassigned) [Example 90b, (*S)-4-(((6,8-dimethyl-4-oxochroman-7-yl)oxy)(4-fluorophenyl)methyl)benzamide]",590 nM,7.4 µM
"Cc1c(O[C@H](c2ccc(C(N)=O)cc2)c2ccc(F)c(F)c2)c(F)cc2c1OCCC2=O (single isomer, unassigned) [Example 91a, (*R)-4-((3,4-difluorophenyl)((6-fluoro-8-methyl-4-oxochroman-7-yl)oxy)methyl)benzamide]",550 nM,7.8 µM
"Cc1c(O[C@@H](c2ccc(C(N)=O)cc2)c2ccc(F)c(F)c2)c(F)cc2c1OCCC2=O (single isomer, unassigned) [Example 91b, (*S)-4-((3,4-difluorophenyl)((6-fluoro-8-methyl-4-oxochroman-7-yl)oxy)methyl)benzamide]",350 nM,> 15 µM
"Cc1c(O[C@@H](c2ccc(C(N)=O)cc2)c2cccc(C#N)c2)c(F)cc2c1OCCC2=O (single isomer, unassigned) [Example 92b, (*S)-4-((3-cyanophenyl)((6-fluoro-8-methyl-4-oxochroman-7-yl)oxy)methyl)benzamide]",190 nM,> 15 µM
"Cc1c(O[C@H](c2ccc(C(N)=O)cc2)c2ccc(S(C)(=O)=O)cc2)c(F)cc2c1OCCC2=O (single isomer, unassigned) [Example 93a, (*R)-4-(((6-fluoro-8-methyl-4-oxochroman-7-yl)oxy)(4-(methylsulfonyl)phenyl)methyl)benzamide]",190 nM,6 µM
"Cc1c(O[C@@H](c2ccc(C(N)=O)cc2)c2ccc(S(C)(=O)=O)cc2)c(F)cc2c1OCCC2=O (single isomer, unassigned) [Example 93b, (*S)-4-(((6-fluoro-8-methyl-4-oxochroman-7-yl)oxy)(4-(methylsulfonyl)phenyl)methyl)benzamide]",280 nM,14 µM
"Cc1c(O[C@H](c2ccncc2)c2ccc(C(N)=O)c(F)c2)c(F)cc2c1OCCC2=O (single isomer, unassigned) [Example 95a, (*R)-2-fluoro-4-(((6-fluoro-8-methyl-4-oxochroman-7-yl)oxy)(pyridin-4-yl)methyl)benzamide]",220 nM,0.23 µM
"Cc1c(O[C@@H](c2ccncc2)c2ccc(C(N)=O)c(F)c2)c(F)cc2c1OCCC2=O (single isomer, unassigned) [Example 95b, (*S)-2-fluoro-4-(((6-fluoro-8-methyl-4-oxochroman-7-yl)oxy)(pyridin-4-yl)methyl)benzamide]",220 nM,1.1 µM
"Cc1c(O[C@H](c2ccncc2)c2cccc(F)c2)c(F)cc2c1OCCC2=O (single isomer, unassigned) [Example 96a, (*R)-6-fluoro-7-((3-fluorophenyl)(pyridin-4-yl)methoxy)-8-methylchroman-4-one]",300 nM,11 µM
"Cc1c(O[C@@H](c2ccncc2)c2cccc(F)c2)c(F)cc2c1OCCC2=O (single isomer, unassigned) [Example 96b, (*S)-6-fluoro-7-((3-fluorophenyl)(pyridin-4-yl)methoxy)-8-methylchroman-4-one]",470 nM,> 15 µM
